According to patent US6790608B2, “Methods of identifying and ADP-glucose receptor ligand, agonist or antagonist” (The Regents of the University of California, priority 2000, dated 2004):
“Also recorded” adds a separate entry of the source. Where two headings read alike, the source gives them in different places.

How the values were obtained:
rat arterial tissues = experiment: Contraction of precontracted rat arterial rings in organ bath; conditions: for EC50: read-out: EC50 of relaxation
Method: Rat arterial tissues were prepared as described previously (Duckles, S. P., J. Pharmacol. Exp. Ther. 240: 697-700 (1987); Sara Sangha et al., J. Appl. Physiol. 88: 507-517 (2000)). Briefly, male Wistar rats (250 g) were sacrificed by decapitation. The thoracic and abdominal aorta and the carotid artery were immediately removed and cleaned of adhering tissue. Arteries were cut into rings (about 3 mm in length) and mounted into an organ bath filled with Kreb-Ringer-bicarbonate buffer at 37° C. (buffer composition: 119.2 mM NaCl, 25 mM NaHCO3, 4.9 mM KCl, 1.2 mM MgSO4, 11.1 mM glucose, 0.114 mM ascorbic acid, pH 7.4). The buffer was aerated by bubbling with 95% O2:5% CO2. Arterial rings were connected to a force transducer and isometric contractions of the preparations were recorded using MacLab. The contractile responses are expressed as the mass (g) required to generate the measured force. The arterial preparations were equilibrated for one hour at a resting force of 2 g and then challenged several times with 100 mM KCl to establish a baseline.
To determine the effect of ADP-glucose on evoked contractions, arterial rings were precontracted with either 0.3 μM phenylephrine or 0.3 μM serotonin. ADP-glucose was subsequently added to the arterial rings in a cumulative manner to establish a dose-response relationship between ADP-glucose concentration and arterial ring contraction. At the end of each experiment, residual constriction was reversed by the addition of 1 μM acetylcholine. Each arterial preparation was tested in triplicate with each cumulative dosage scheme carried out at least twice. Data are expressed as means±S.E.M. and dose-response curves were calculated with Prism (GraphPad, San Diego).

[1] = test system: endogenous ADP-glucose receptor in HEK 293 cells; experiment: Intracellular calcium mobilization (FLIPR, Fluo4-AM) in HEK 293 cells; type: cell-based, human
Method: (§1) In order to characterize the function of the encoded receptor, the pCDNA3.1 expression construct containing the amplified receptor gene was transiently transfected into human embryonic kidney (HEK 293) cells or Chinese hamster ovary (CHO) cells. HEK 293 cells were cultured in DMEM containing 10% fetal bovine serum (FBS), and CHO cells were cultured in alpha-MEM with 5% FBS. All cells were kept at 37° C. in a 5% CO2 atmosphere.
(§2) For certain experiments, the cells were transiently cotransfected with the receptor construct and equimolar ratios of the G-protein alpha subunit Gα16 and/or the chimeric subunit […] in pCDNA3.1 (described in Saito et al., Nature 265-269 (1999)). For functional assays measuring intracellular calcium, twenty-four hours after transfection, cells were seeded into black clear-bottom 96-well plates at a density of 50,000 cells/well. Following overnight incubation the cells were loaded for 1 h with 1 μM of the fluorescent calcium indicator dye Fluo4-AM (Molecular Probes) dissolved in assay buffer containing Hank's balanced salts, 20 mM HEPES, 1% FBS, 2.5 mM probenecid, pH 7.4. After loading, the cells were washed three times with assay buffer without FBS. Addition of drugs and measurement of changes in intracellular calcium were performed using a fluorimetric imaging plate reader (FLIPR, Molecular Devices). Agonist responses were determined using the maximum change in fluorescence over baseline.
The ADP-glucose receptor construct was also expressed in HEK 293 cells.

guinea pig ileum = experiment: Isometric contractions of guinea pig ileal segments in organ bath
Method: Ileal segments (about 2 cm) were prepared from male guinea pigs euthanized by asphyxiation with CO2 and mounted in an organ bath filled with Krebs-Ringer bicarbonate (KRB) buffer as described in Thomas et al., Mol. Pharmacol. 44:102-110 (1993). Isometric contractions of the preparations were measured with a force transducer and recorded on a polygraph (Grass Instruments). The contractile responses are expressed as the mass (g) required to generate the measured force. For contractile measurements of field-stimulations, ilea were mounted between platinum ring electrodes connected to a stimulator (Grass SD9). Ilea were electrically stimulated (40 mV, 8 ms duration, 0.2 Hz) for 5 min followed by a resting period of 8-10 min.
Drugs were diluted in KRB and added directly to the bath. For intraluminal drug application a polyethylene tube (I.D.: 2 mm; length: 1.2 cm) was inserted about 3 mm deep into the ileum and fixed with a surgical thread. The other end of the preparation was closed tightly by a thread. The intubated ilea were mounted in the organ bath in such a way that the open end of the polyethylene tube was extending above the buffer surface. Drugs were administered to the ileal lumen using a Hamilton syringe. After each incubation, ilea were washed three times with KRB and allowed to equilibrate for at least 10 min. For some experiments ilea were removed from animals that had been treated with 100 μg/kg pertussis toxin three days prior to the experiment. Dose response curves were obtained in separate experiments for each drug concentration tested in duplicate and EC50 values were calculated using GraphPad Prism.
However, due to the irregular nature of these contractions it was not possible to study dose-response relationships of pharmacological agents in such a preparation. Therefore, field-stimulation was used to elicit contractions that are known to be mediated by neuronal release of acetylcholine activating M3 muscarinic receptors (Cowie et al., Brit. J. Pharmacol. 64:565-580 (1978); Kilbinger et al., Eur. J. Pharmacol. 103:313-320 (1984)).

[2] = molecular target: T1, human ADP-glucose receptor (Homo sapiens, UniProt Q9H244); experiment: Intracellular calcium mobilization (FLIPR, Fluo4-AM) in CHO cells transiently transfected with the cloned receptor; type: cell-based; conditions: for induction of increase in intracellular Ca2+ / receptor activation: CHO cells cotransfected with receptor, Gα16 and chimeric Gαqi3; for increase in intracellular Ca2+ in untransfected cells: untransfected CHO cells
T1 construct: such that a nucleic acid molecule encoding a full-length ADP-glucose receptor can be amplified; expressed in transfected cells
T1 sequence (Q9H244 whole entry): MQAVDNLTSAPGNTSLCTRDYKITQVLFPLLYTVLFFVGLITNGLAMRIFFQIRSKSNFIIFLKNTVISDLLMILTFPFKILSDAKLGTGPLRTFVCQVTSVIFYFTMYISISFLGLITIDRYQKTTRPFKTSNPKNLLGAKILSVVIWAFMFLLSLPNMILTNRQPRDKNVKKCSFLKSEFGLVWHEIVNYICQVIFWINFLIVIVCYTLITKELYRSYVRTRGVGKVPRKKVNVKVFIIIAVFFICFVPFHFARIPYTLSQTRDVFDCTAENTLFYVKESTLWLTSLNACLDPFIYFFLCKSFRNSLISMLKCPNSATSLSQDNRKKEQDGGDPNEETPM
Method: as §1, §2
To enforce coupling of the novel receptor to the phospholipase C pathway, CHO cells were transiently cotransfected with expression constructs containing the amplified receptor DNA, Gα16 and a chimeric Gαq subunit carrying the C-terminal tail of Gαi3.
Dose-response curves were calculated using GraphPad Prism (GraphPad Software Inc.).
In order to determine the preferential G-protein coupling of the ADP-glucose receptor, mobilization of [Ca^2+]i was examined in CHO cells expressing either the receptor alone or in combination with either Gα16 or Gαqi3.

isolated frog heart = conditions: cyclic perfusion; cited from earlier work
unanesthetised frogs = conditions: systemic administration; cited from earlier work
[3] = carotid arteries, serotonin-induced constrictions
[4] = untransfected HEK 293 cells, endogenous receptor, read-out: EC50 of [Ca2+]i increase
[5] = CHO cells transiently transfected with receptor construct together with Gα16 and Gαqi3, read-out: EC50 of transient increase in [Ca2+]i

**Q.** What does the source list for `Nc1ncnc2c1ncn2[C@@H]1O[C@H](COP(=O)(O)OP(=O)(O)O[C@H]2O[C@H](CO)[C@@H](O)[C@H](O)[C@H]2O)[C@@H](O)[C@H]1O` [ADP-glucose, adenosine 5′-diphosphoglucose]?
**A.** EC50 (rat arterial tissues; abdominal aorta, precontracted with 0.3 μM phenylephrine): 6.67 ± 1.8 µM; EC50 (rat arterial tissues; abdominal aorta, precontracted with 0.3 μM serotonin): 3.26 ± 0.12 µM; maximal relaxation (rat arterial tissues; abdominal aorta, serotonin-precontracted): about 80%; maximal relaxation (rat arterial tissues; [3]): 40%; EC50 (rat arterial tissues; [3]): 20.5 ± 6.3 µM; EC50 (rat arterial tissues; carotid artery, precontracted with 0.3 μM phenylephrine): 3.1 ± 0.3 µM; maximal relaxation (rat arterial tissues; phenylephrine-precontracted, highest concentration tested, all three tissues): 40%-50%; EC50 (rat arterial tissues; thoracic aorta, precontracted with 0.3 μM phenylephrine): 13.8 ± 2.8 µM; response of serotonin-precontracted thoracic aorta (rat arterial tissues; thoracic aorta, serotonin-precontracted): unresponsive; effect on untreated arterial tissue (rat arterial tissues; untreated arterial tissue at resting force): no effect; [Ca2+]i response in HEK 293 cells [1]: strong mobilization of [Ca^2+]i; EC50 ([1]; HEK 293 cells transiently cotransfected with cloned receptor and Gα16, read-out: EC50 of intracellular Ca2+ release): 2.5 ± 0.82 µM; EC50 [1, 4]: 2.9 ± 0.51 µM; maximal inhibition of histamine-evoked contractions (guinea pig ileum; contractions produced by 0.3 μM histamine): 60%; EC50 (guinea pig ileum; contractions produced by 0.3 μM histamine, read-out: EC50 of inhibition of histamine-evoked contractions): 6.2 ± 1.8 µM; EC50 (guinea pig ileum; field-stimulated, untreated ileum, read-out: EC50 of inhibition of electrically evoked contractions): 6.64 ± 0.4 µM; maximal inhibition of electrically evoked contractions (guinea pig ileum; ileum from pertussis toxin treated animals): 40%; EC50 (guinea pig ileum; ileum from pertussis toxin treated animals, read-out: EC50 of inhibition of electrically evoked contractions): 35.5 ± 5.5 µM; effect on electrically-evoked contractions (guinea pig ileum; ileum punctured to release intraluminal content into the bath): strong inhibition; effect on field-stimulated contractions (guinea pig ileum; intraluminal administration): no effect; maximal inhibition of electrically evoked contractions (guinea pig ileum; maximally effective concentrations, untreated ileum): 90%; effect on contractions produced by oxotremorine M (guinea pig ileum; muscarinic agonist oxotremorine M): unaffected; effect on spontaneous contractions (guinea pig ileum; spontaneous contractions, ileum preparations): inhibition of spontaneous contractions; EC50 ([2]; CHO cells cotransfected with receptor and Gαqi3, read-out: EC50 of [Ca2+]i mobilization): 8.2 ± 1.3 µM; induction of increase in intracellular Ca2+ / receptor activation [2]: induced a dose-dependent and transient increase; EC50 ([2]; CHO cells expressing receptor alone, read-out: EC50 of [Ca2+]i mobilization): 24 ± 4.1 µM; EC50 [2, 5]: 2.98 ± 0.22 µM; EC50 ([2]; CHO cells, receptor with Gα16, read-out: EC50 of [Ca2+]i mobilization): 11.8 ± 2.4 µM; increase in intracellular Ca2+ in untransfected cells [2]: not in untransfected cells

**Q.** For `Nc1ncnc2c1ncn2[C@@H]1O[C@H](COP(=O)(O)OP(=O)(O)O[C@H]2O[C@H](CO)[C@@H](O)[C@H](O)[C@@H]2O)[C@@H](O)[C@H]1O` [ADP-mannose], which “induction of increase in intracellular Ca2+ / receptor activation” value [2] is on record?
**A.** only ADP-glucose and ADP-ribose induced a dose-dependent and transient increase; also recorded: unable to activate the receptor

**Q.** Which “effect on action potential in the sinus node” value (isolated frog heart) does the source give for `Nc1ncnc2c1ncn2[C@@H]1O[C@H](COP(=O)(O)OP(=O)(O)OC[C@H]2OC(O)[C@H](O)[C@@H]2O)[C@@H](O)[C@H]1O` (stereo partly shown) [ADP-ribose] here?
**A.** decrease in the action potential duration and rate of rise in the sinus node

**Q.** And the “effect on heart rate and contraction force” value (isolated frog heart)?
**A.** dose-dependent decrease in heart rate and contraction force

**Q.** What about the “[Ca2+]i response in HEK 293 cells” value [1] of the same compound?
**A.** full agonist

**Q.** And the EC50 [1, 4]?
**A.** 38.7 ± 10.6 µM

**Q.** What about the “effect on heart rate” value (unanesthetised frogs) of the same compound?
**A.** reversible increase in heart rate

**Q.** And the “effect on electrically-evoked contractions” value (guinea pig ileum; field-stimulated ileum, drug added to bath)?
**A.** very similar inhibitory effects

**Q.** And the “induction of increase in intracellular Ca2+ / receptor activation” value [2]?
**A.** partial agonist; also recorded: induced a dose-dependent and transient increase

**Q.** And the EC50 [2, 5]?
**A.** 59.4 ± 7.3 µM

**Q.** And the “increase in intracellular Ca2+ in untransfected cells” value [2]?
**A.** not in untransfected cells

**Q.** For `Nc1ncnc2c1ncn2[C@@H]1O[C@H](COP(=O)(O)OP(=O)(O)O)[C@@H](O)[C@H]1O` [ADP], which “induction of increase in intracellular Ca2+ / receptor activation” value [2] is on record?
**A.** only ADP-glucose and ADP-ribose induced a dose-dependent and transient increase

**Q.** With `Nc1ncnc2c1ncn2[C@@H]1O[C@H](COP(=O)(O)O)[C@@H](O)[C@H]1O` [AMP] as the compound, how does the “induction of increase in intracellular Ca2+ / receptor activation” value [2] read?
**A.** only ADP-glucose and ADP-ribose induced a dose-dependent and transient increase

**Q.** For `Nc1ncnc2c1ncn2[C@@H]1O[C@H](COP(=O)(O)OP(=O)(O)OP(=O)(O)O)[C@@H](O)[C@H]1O` [ATP], which “induction of increase in intracellular Ca2+ / receptor activation” value [2] is on record?
**A.** only ADP-glucose and ADP-ribose induced a dose-dependent and transient increase

**Q.** With `Nc1ccn([C@@H]2O[C@H](COP(=O)(O)OP(=O)(O)O[C@H]3O[C@H](CO)[C@@H](O)[C@H](O)[C@H]3O)[C@@H](O)[C@H]2O)c(=O)n1` [CDP-glucose] as the compound, how does the “[Ca2+]i response in HEK 293 cells” value [1] read?
**A.** did not respond

**Q.** What about the “induction of increase in intracellular Ca2+ / receptor activation” value [2] of the same compound?
**A.** only ADP-glucose and ADP-ribose induced a dose-dependent and transient increase

**Q.** For `Nc1nc2c(ncn2[C@@H]2O[C@H](COP(=O)(O)OP(=O)(O)O[C@H]3O[C@H](CO)[C@@H](O)[C@H](O)[C@H]3O)[C@@H](O)[C@H]2O)c(=O)[nH]1` [GDP-glucose], which “[Ca2+]i response in HEK 293 cells” value [1] is on record?
**A.** did not respond

**Q.** And the “induction of increase in intracellular Ca2+ / receptor activation” value [2]?
**A.** only ADP-glucose and ADP-ribose induced a dose-dependent and transient increase

**Q.** Which “[Ca2+]i response in HEK 293 cells” value [1] does the source give for `Cc1cn([C@H]2C[C@H](O)[C@@H](COP(=O)(O)OP(=O)(O)O[C@H]3O[C@H](CO)[C@@H](O)[C@H](O)[C@H]3O)O2)c(=O)[nH]c1=O` [TDP-glucose] here?
**A.** did not respond

**Q.** What about the “induction of increase in intracellular Ca2+ / receptor activation” value [2] of the same compound?
**A.** only ADP-glucose and ADP-ribose induced a dose-dependent and transient increase

**Q.** Which “induction of increase in intracellular Ca2+ / receptor activation” value [2] does the source give for `Nc1ncnc2c1ncn2[C@@H]1O[C@H](CO)[C@@H](O)[C@H]1O` [adenosine] here?
**A.** only ADP-glucose and ADP-ribose induced a dose-dependent and transient increase
